pEC50: −log10 of the molar value.
Columns and labels:
mu opioid receptor (MOR) [1] = target: T1, mu opioid receptor (MOR) (Homo sapiens, UniProt P35372); experiment: PathHunter β-arrestin recruitment assay, PAM mode with EC20 endomorphin-1; type: cell-based; settings: for pEC50: read-out: β-arr. EC50; for allosteric activity for β-arrestin recruitment: EC20 endomorphin-1 concentration of 4.5 nM
Summary of the method: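 Enzyme fragment complementation read-out: β-gal ED fragment fused to receptor, EA fused to β-arrestin, recruitment restoring β-gal activity detected by chemiluminescence. EC50 and percent maximal response derived for each compound.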

mu opioid receptor (MOR) [2] = target: T1, mu opioid receptor (MOR); experiment: Hit Hunter cAMP signaling assay (adenylyl cyclase inhibition), PAM mode with EC20 endomorphin-1; type: cell-based; settings: for allosteric activity for cAMP signaling: EC20 endomorphin-1 concentration of 0.45 nM
[3] = maximal response, β-arrestin recruitment
[4] = cAMP EC50, adenylyl cyclase inhibition
[5] = maximal response, adenylyl cyclase inhibition
[6] = maximal response for β-arrestin recruitment
[7] = maximal response for adenylyl cyclase inhibition
[8] = adenylyl cyclase inhibition, read-out: cAMP EC50
[9] = maximal response for β-arrestin recruitment, Table 3
[10] = β-arrestin recruitment, Table 3
[11] = maximal response for adenylyl cyclase inhibition, Table 3

T1 sequence (P35372 whole entry, the tested form may be a part): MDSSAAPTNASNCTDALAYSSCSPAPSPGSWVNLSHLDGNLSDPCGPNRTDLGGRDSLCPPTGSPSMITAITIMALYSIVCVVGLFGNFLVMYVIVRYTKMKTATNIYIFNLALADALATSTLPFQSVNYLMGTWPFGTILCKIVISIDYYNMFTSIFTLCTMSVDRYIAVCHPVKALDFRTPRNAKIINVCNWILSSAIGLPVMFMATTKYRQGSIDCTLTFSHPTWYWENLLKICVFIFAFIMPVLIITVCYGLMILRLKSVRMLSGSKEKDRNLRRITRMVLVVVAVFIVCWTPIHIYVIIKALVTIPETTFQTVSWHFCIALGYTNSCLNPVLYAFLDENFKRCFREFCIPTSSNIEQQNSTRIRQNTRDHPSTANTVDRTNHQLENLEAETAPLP

| SMILES | pEC50 (mu opioid receptor (MOR) [1]; β-arrestin recruitment) | pEC50 (mu opioid receptor (MOR) [2]; [4]) | β-arr Max. Resp. (mu opioid receptor (MOR) [1]; [6]) | cAMP Max. Resp. (mu opioid receptor (MOR) [2]; [7]) | pEC50 (mu opioid receptor (MOR) [2]; [8]) | other results |
| --- | --- | --- | --- | --- | --- | --- |
| COc1ccc(C2CCCCN2S(=O)(=O)c2ccn(C)n2)cc1Br (stereo not drawn) [compound 483] | < 5.68 | < 5.68 | – | – | – | β-arr Max. Resp. (mu opioid receptor (MOR) [1]; [3]): D (D represents a maximal response of < 40%); cAMP Max. Resp. (mu opioid receptor (MOR) [2]; [5]): D (D represents a maximal response of < 40%) |
| OC1CCC(c2cc(F)cc(C(F)(F)F)c2)N(c2nc(Cl)ncc2F)C1 (stereo not drawn) [compound 311] | < 5.68 | 5.68 to 6.15 | F (F represents a maximal response of > 60%) | F (F represents a maximal response of > 60%) | – | – |
| O=S(=O)(c1ccc(Cl)cc1)N1CCCCC1c1cc(F)cc(C(F)(F)F)c1 (racemic) [compound 50] | < 5.68 | – | F (F represents a maximal response of > 60%) | D (D represents a maximal response of < 40%) | 5.68 to 6.15 | – |
| O=S(=O)(Cc1ccc(Cl)c(Cl)c1)N1C2CCC(C2)C1c1ccc(F)c(Br)c1 (stereo not drawn) [Compound 181] | < 5.68 | – | E (E represents a maximal response of 40-60%) | D (D represents a maximal response of < 40%) | < 5.68 | – |
| OC1CCN(c2nc(Cl)ncc2F)C(c2cccc(C(F)(F)F)c2)C1 (stereo not drawn) [compound 202] | < 5.68 | < 5.68 | F (F represents a maximal response of > 60%) | E (E represents a maximal response of 40-60%) | – | – |
| Cc1cc(C2CCCCN2S(=O)(=O)c2ccc(Cl)cc2)ccc1F (racemic) [compound 67] | < 5.68 | – | F (F represents a maximal response of > 60%) | E (E represents a maximal response of 40-60%) | 5.68 to 6.15 | – |
| Fc1cnc(Cl)nc1N1CCCCC1c1ccccn1 (stereo not drawn) [compound 329] | > 6.15 | > 6.15 | D (D represents a maximal response of < 40%) | D (D represents a maximal response of < 40%) | – | – |
| Fc1ccc(C2CCCCN2c2nc(Cl)ncc2F)cn1 (stereo not drawn) [compound 297] | – | – | E (E represents a maximal response of 40-60%) | E (E represents a maximal response of 40-60%) | – | pEC50 (mu opioid receptor (MOR) [2]): < 5.68 |
| O=S(=O)(c1ccc(Cl)cc1)N1CCCCC1c1ccc2c(c1)OCO2 (stereo not drawn) [compound 44] | < 5.68 | – | F (F represents a maximal response of > 60%) | E (E represents a maximal response of 40-60%) | < 5.68 | allosteric activity for β-arrestin recruitment (mu opioid receptor (MOR) [1]): moderate positive allosteric activity; signaling preference β-arrestin vs cAMP (mu opioid receptor (MOR) [1]; comparison of β-arrestin and cAMP assays): equivalent effects on β-arrestin recruitment and cAMP signaling; β-arr. Max Resp. (mu opioid receptor (MOR) [1]; [9]): 99; pEC50 (mu opioid receptor (MOR) [1]; [10]): 5.25; allosteric activity for cAMP signaling (mu opioid receptor (MOR) [2]): moderate positive allosteric activity; pEC50 (mu opioid receptor (MOR) [2]; adenylyl cyclase inhibition, Table 3, read-out: cAMP EC50): 5.43; cAMP Max Resp. (mu opioid receptor (MOR) [2]; [11]): 57 |
| Fc1ccc(C2CCCCN2c2cccc(Cl)c2)cc1Cl (stereo not drawn) [compound 443] | < 5.68 | < 5.68 | – | – | – | β-arr Max. Resp. (mu opioid receptor (MOR) [1]; [3]): F (F represents a maximal response of > 60%); cAMP Max. Resp. (mu opioid receptor (MOR) [2]; [5]): D (D represents a maximal response of < 40%) |
| Fc1cnc(Cl)nc1N1CCCCC1c1ccnc(C(F)(F)F)c1 (stereo not drawn) [compound 410] | > 6.15 | > 6.15 | D (D represents a maximal response of < 40%) | D (D represents a maximal response of < 40%) | – | – |
| CC1CCN(S(=O)(=O)c2ccc(Cl)cc2)C1c1cccc(C(F)(F)F)c1 (mixture of isomers) [Compound 89] | 5.68 to 6.15 | – | F (F represents a maximal response of > 60%) | D (D represents a maximal response of < 40%) | < 5.68 | – |
| Fc1cc(C2CCCCN2Cc2cccc(Br)c2)cc(C(F)(F)F)c1 (stereo not drawn) [compound 148] | 5.68 to 6.15 | < 5.68 | F (F represents a maximal response of > 60%) | E (E represents a maximal response of 40-60%) | – | – |
| N#Cc1cc(C2CCCCN2S(=O)(=O)c2ccc(Cl)cc2)ccn1 (racemic) [compound 80] | < 5.68 | – | E (E represents a maximal response of 40-60%) | D (D represents a maximal response of < 40%) | < 5.68 | – |
| Fc1ccc(C2C(F)CCCN2c2nc(Cl)ncc2F)cc1Br (stereo not drawn) [compound 214] | < 5.68 | – | – | – | 5.68 to 6.15 | – |
| Fc1cnc(Cl)nc1N1CCCCC1c1ccc2c(c1)CCO2 (stereo not drawn) [compound 371] | > 6.15 | > 6.15 | D (D represents a maximal response of < 40%) | D (D represents a maximal response of < 40%) | – | – |

| SMILES | pEC50 (mu opioid receptor (MOR) [1]; β-arrestin recruitment) | pEC50 (mu opioid receptor (MOR) [2]; [4]) | β-arr Max. Resp. (mu opioid receptor (MOR) [1]; [6]) | cAMP Max. Resp. (mu opioid receptor (MOR) [2]; [7]) | pEC50 (mu opioid receptor (MOR) [2]; [8]) | other results |
| --- | --- | --- | --- | --- | --- | --- |
| Fc1ccc(C2CCCCN2c2nc(Cl)ncc2F)cc1Cl (single isomer, unassigned) [compound 11] | > 6.15 | – | F (F represents a maximal response of > 60%) | E (E represents a maximal response of 40-60%) | – | – |
| CCN(CC)c1ncc(F)c(N2CCCCC2c2cccc(C(F)(F)F)c2)n1 (stereo not drawn) [compound 254] | < 5.68 | < 5.68 | D (D represents a maximal response of < 40%) | E (E represents a maximal response of 40-60%) | – | – |
| O=S(=O)(c1ccc(Cl)cc1)N1CCCCC1c1cncc(F)c1 (racemic) [compound 82] | < 5.68 | – | D (D represents a maximal response of < 40%) | D (D represents a maximal response of < 40%) | < 5.68 | – |
| FC(F)(F)c1cccc(C2CCCCN2c2cc(Cl)ncn2)c1 (stereo not drawn) [compound 360] | > 6.15 | > 6.15 | D (D represents a maximal response of < 40%) | D (D represents a maximal response of < 40%) | – | – |
| Fc1cnc(Cl)nc1N1CCCCC1c1cccnc1 (stereo not drawn) [compound 373] | > 6.15 | > 6.15 | D (D represents a maximal response of < 40%) | D (D represents a maximal response of < 40%) | – | – |
| Fc1cc(C2C3CCC(C3)N2Cc2cc(Cl)ccc2F)cc(C(F)(F)F)c1 (stereo not drawn) [compound 216] | > 6.15 | < 5.68 | F (F represents a maximal response of > 60%) | D (D represents a maximal response of < 40%) | – | allosteric activity for β-arrestin recruitment (mu opioid receptor (MOR) [1]): high positive allosteric activity; allosteric activity for β-arrestin recruitment (mu opioid receptor (MOR) [1]; listed as Compound No. 216): high allosteric modulatory capability; allosteric activity for cAMP signaling (mu opioid receptor (MOR) [2]): silent allosteric activity |
| COc1cccc(N2CCCCC2c2cccc(C(F)(F)F)n2)c1 (stereo not drawn) [compound 455] | < 5.68 | – | – | – | < 5.68 | β-arr Max. Resp. (mu opioid receptor (MOR) [1]; [3]): E (E represents a maximal response of 40-60%); cAMP Max. Resp. (mu opioid receptor (MOR) [2]; [5]): D (D represents a maximal response of < 40%) |
| COc1cc(C2CCCCN2S(=O)(=O)c2ccc(Cl)cc2)ccc1Br (stereo not drawn) [compound 42] | 5.68 to 6.15 | – | E (E represents a maximal response of 40-60%) | D (D represents a maximal response of < 40%) | < 5.68 | – |
| COC(=O)c1ccc(N2CCCCC2c2cccc(C(F)(F)F)n2)cc1 (stereo not drawn) [compound 478] | < 5.68 | < 5.68 | – | – | – | β-arr Max. Resp. (mu opioid receptor (MOR) [1]; [3]): F (F represents a maximal response of > 60%); cAMP Max. Resp. (mu opioid receptor (MOR) [2]; [5]): D (D represents a maximal response of < 40%) |
| COc1ccc(C2CCCCN2S(=O)(=O)c2ccccc2)cc1Br (stereo not drawn) [compound 14] | < 5.68 | < 5.68 | F (F represents a maximal response of > 60%) | E (E represents a maximal response of 40-60%) | – | allosteric activity for β-arrestin recruitment (mu opioid receptor (MOR) [1]): silent allosteric activity; allosteric activity for β-arrestin recruitment (mu opioid receptor (MOR) [1]; listed as Compound No. 14): dual silent allosteric modulation; β-arr. Max Resp. (mu opioid receptor (MOR) [1]; [9]): 111; pEC50 (mu opioid receptor (MOR) [1]; [10]): 4.88; allosteric activity for cAMP signaling (mu opioid receptor (MOR) [2]): silent allosteric activity; allosteric activity for cAMP signaling (mu opioid receptor (MOR) [2]; listed as Compound No. 14): dual silent allosteric modulation; EC50 (mu opioid receptor (MOR) [2]; cAMP EC50 (nM), adenylyl cyclase inhibition, Table 3): 9610 nM; cAMP Max Resp. (mu opioid receptor (MOR) [2]; [11]): 43 |
| COC(=O)c1cc(C2CCCCN2S(=O)(=O)c2ccc(Cl)cc2)ccn1 (racemic) [compound 81] | < 5.68 | – | E (E represents a maximal response of 40-60%) | D (D represents a maximal response of < 40%) | < 5.68 | – |
| FC(F)(F)c1cccc(C2CCCCN2Cc2cccc(Cl)c2)n1 (stereo not drawn) [compound 170] | 5.68 to 6.15 | > 6.15 | F (F represents a maximal response of > 60%) | E (E represents a maximal response of 40-60%) | – | – |
| [2H]C1(c2cccc(C(F)(F)F)c2)C(F)CCCN1c1nc(Cl)ncc1F (single isomer, unassigned) [compound 208] | < 5.68 | – | F (F represents a maximal response of > 60%) | F (F represents a maximal response of > 60%) | – | – |
| COc1ccc(C2CCCCN2c2nc(Cl)ncc2F)cc1C(F)(F)F (stereo not drawn) [compound 289] | 5.68 to 6.15 | < 5.68 | F (F represents a maximal response of > 60%) | D (D represents a maximal response of < 40%) | – | – |
| Fc1ccc(C2CCCCN2c2nc(Cl)ncc2F)cc1Cl (single isomer, unassigned) [compound 10] | > 6.15 | > 6.15 | F (F represents a maximal response of > 60%) | E (E represents a maximal response of 40-60%) | – | – |
| Fc1ccc(Cl)nc1N1CCCCC1c1ccc(C(F)(F)F)nc1 (stereo not drawn) [compound 415] | > 6.15 | > 6.15 | D (D represents a maximal response of < 40%) | D (D represents a maximal response of < 40%) | – | – |

Source: US11071731B2, “Allosteric modulators of the mu opioid receptor” (Chiromics, LLC, priority 2017, dated 2021)
